Values after ≈ are worked out from the molar mass of the structure shown.
What was measured:
E coli = assay: MIC assay, E coli; assay type: cell-based
H. flu = assay type: cell-based, H. influenza; conditions: H. flu
E. faecalis = assay: MIC assay, E. faecalis; assay type: cell-based, Enterococcus faecalis
S. aureus = assay: MIC assay, S. aureus; assay type: cell-based, Staphylococcus aureus
S. pneumo. = assay: MIC assay, S. pneumo.; assay type: cell-based, Streptococcus pneumoniae

| Structure (SMILES) | MIC (μg/mL) E coli (E coli) | MIC (μg/mL) H. flu (H. flu) | MIC (μg/mL) E. faecalis (E. faecalis) | MIC (μg/mL) S. aureus (S. aureus) | MIC (μg/mL) S. pneumo. (S. pneumo.) |
| --- | --- | --- | --- | --- | --- |
| CO[C@H]1/C=C/O[C@@]2(C)Oc3c(C)c(O)c4c(=O)c(c5oc6cc(N7CCC(N8CCOCC8)CC7)cc(O)c6nc-5c4c3C2=O)NC(=O)/C(C)=C\C=C\[C@H](C)[C@H](O)[C@@H](C)[C@@H](O)[C@@H](C)[C@H](OC(C)=O)[C@@H]1C [Compound 9, 3′-hydroxy-5′-(4-morpholinyl-1-piperidinyl)benzoxazinorifamycin] | 8 µg/mL (≈ 8.26 µM) | 2 µg/mL (≈ 2.06 µM) | 2 µg/mL (≈ 2.06 µM) | 0.015 µg/mL (≈ 0.0155 µM) | 0.001 µg/mL (≈ 0.00103 µM) |
| CO[C@H]1/C=C/O[C@@]2(C)Oc3c(C)c(O)c4c(=O)c(c5oc6cc(N7CC8CCC(C7)N8)cc(O)c6nc-5c4c3C2=O)NC(=O)/C(C)=C\C=C\[C@H](C)[C@H](O)[C@@H](C)[C@@H](O)[C@@H](C)[C@H](OC(C)=O)[C@@H]1C [Compound 10, 3′-hydroxy-5′-(3,8-diazabicyclo[3.2.1]octan-3-yl)benzoxazinorifamycin] | >8 µg/mL | 2 µg/mL (≈ 2.2 µM) | 1 µg/mL (≈ 1.1 µM) | 0.008 µg/mL (≈ 0.00878 µM) | 0.00012 µg/mL (≈ 0.000132 µM) |
| CO[C@H]1/C=C/O[C@@]2(C)Oc3c(C)c(O)c4c(=O)c(c5oc6cc(N7CCC(N8CCOCC8)CC7)cc(O)c6nc-5c4c3C2=O)NC(=O)/C(C)=C\C=C\[C@H](C)[C@H](O)[C@@H](C)[C@@H](O)[C@@H](C)[C@H](O)[C@@H]1C [Compound 11, 25-O-deacetyl-3′-hydroxy-5′-(4-morpholinyl-1-piperidinyl)benzoxazinorifamycin] | 4 µg/mL (≈ 4.31 µM) | 1 µg/mL (≈ 1.08 µM) | 0.25 µg/mL (≈ 0.27 µM) | 0.004 µg/mL (≈ 0.00431 µM) | 0.00012 µg/mL (≈ 0.000129 µM) |
| CO[C@H]1/C=C/O[C@@]2(C)Oc3c(C)c(O)c4c(=O)c(c5oc6cc(N7C[C@H]8CCCN[C@H]8C7)cc(O)c6nc-5c4c3C2=O)NC(=O)/C(C)=C\C=C\[C@H](C)[C@H](O)[C@@H](C)[C@@H](O)[C@@H](C)[C@H](OC(C)=O)[C@@H]1C [Compound 12, 3′-hydroxy-5′-[(4aR,7aR)-octahydro-6H-pyrrolo[3,4-b]pyridin-6-yl]benzoxazinorifamycin] | 8 µg/mL (≈ 8.65 µM) | 0.25 µg/mL (≈ 0.27 µM) | 0.12 µg/mL (≈ 0.13 µM) | 0.004 µg/mL (≈ 0.00432 µM) | 0.00025 µg/mL (≈ 0.00027 µM) |
| CO[C@H]1/C=C/O[C@@]2(C)Oc3c(C)c(O)c4c(=O)c(c5oc6cc(N7CCC(NC(=O)OCC(C)C)CC7)cc(O)c6nc-5c4c3C2=O)NC(=O)/C(C)=C\C=C\[C@H](C)[C@H](O)[C@@H](C)[C@@H](O)[C@@H](C)[C@H](OC(C)=O)[C@@H]1C [Compound 13] | 4 µg/mL (≈ 4 µM) | 2 µg/mL (≈ 2 µM) | 0.5 µg/mL (≈ 0.5 µM) | 0.008 µg/mL (≈ 0.00801 µM) | 0.00012 µg/mL (≈ 0.00012 µM) |
| CO[C@H]1/C=C/O[C@@]2(C)Oc3c(C)c(O)c4c(=O)c(c5oc6cc(N7C[C@H]8CCCN[C@H]8C7)cc(O)c6nc-5c4c3C2=O)NC(=O)/C(C)=C\C=C\[C@H](C)[C@H](O)[C@@H](C)[C@@H](O)[C@@H](C)[C@H](O)[C@@H]1C [Compound 15, 25-O-deacetyl-3′-hydroxy-5′-[(4aR,7aR)-octahydro-6H-pyrrolo[3,4-b]pyridin-6-yl]benzoxazinorifamycin] | >8 µg/mL | 1 µg/mL (≈ 1.13 µM) | 0.25 µg/mL (≈ 0.283 µM) | 0.03 µg/mL (≈ 0.034 µM) | 0.002 µg/mL (≈ 0.00226 µM) |
| CO[C@H]1/C=C/O[C@@]2(C)Oc3c(C)c(O)c4c(=O)c(c5oc6cc(N7CC8CCC(C7)N8)cc(O)c6nc-5c4c3C2=O)NC(=O)/C(C)=C\C=C\[C@H](C)[C@H](O)[C@@H](C)[C@@H](O)[C@@H](C)[C@H](O)[C@@H]1C [Compound 16, 25-O-deacetyl-3′-hydroxy-5′-(3,8-diazabicyclo[3.2.1]octan-3-yl)benzoxazinorifamycin] | 4 µg/mL (≈ 4.6 µM) | 0.25 µg/mL (≈ 0.288 µM) | 0.12 µg/mL (≈ 0.138 µM) | 0.015 µg/mL (≈ 0.0173 µM) | 0.001 µg/mL (≈ 0.00115 µM) |
| CO[C@H]1/C=C/O[C@@]2(C)Oc3c(C)c(O)c4c(=O)c(c5oc6cc(N7CCC(N(C)C)CC7)cc(O)c6nc-5c4c3C2=O)NC(=O)/C(C)=C\C=C\[C@H](C)[C@H](O)[C@@H](C)[C@@H](O)[C@@H](C)[C@H](OC(C)=O)[C@@H]1C [Compound 17, 3′-hydroxy-5′-(4-N,N-dimethylamino-1-piperidinyl)benzoxazinorifamycin] | 8 µg/mL (≈ 8.63 µM) | 1 µg/mL (≈ 1.08 µM) | 1 µg/mL (≈ 1.08 µM) | 0.008 µg/mL (≈ 0.00863 µM) | 0.00012 µg/mL (≈ 0.000129 µM) |
| COC1C=COC2(C)Oc3c(C)c(O)c4c(=O)c(c5oc6cc(N7CC(C)CC(C)C7)cc(O)c6nc-5c4c3C2=O)NC(=O)C(C)=CC=CC(C)C(O)C(C)C(O)C(C)C(O)C1C (centres unmarked) [Compound 113] | – | 0.12 µg/mL (≈ 0.138 µM) | 1 µg/mL (≈ 1.15 µM) | 0.008 µg/mL (≈ 0.0092 µM) | 0.002 µg/mL (≈ 0.0023 µM) |
| CCc1cc(C)cc2nc3c4c5c6c(C)c(O)c4c(=O)c(c-3oc12)NC(=O)C(C)=CC=CC(C)C(O)C(C)C(O)C(C)C(O)C(C)C(OC)C=COC(C)(O6)C5=O (centres unmarked) [Compound 130] | >8 µg/mL | – | 1 µg/mL (≈ 1.27 µM) | – | 0.25 µg/mL (≈ 0.319 µM) |

Source: patent publication US7271165B2, “Rifamycin analogs and uses thereof” (priority 2003, dated 2007)
